For eleven compounds, IC50, LD50 and inhibition results are on record in patent US4661603A, “Imidazole derivatives” (Yoshitomi Pharmaceutical Industries, Ltd., priority 1982, dated 1987).

Bounds are passed on as bounds.

For one series, the target named is T1, prostacyclin synthetase (Rattus norvegicus, UniProt Q62969).
T1 construct: incubating the rat arota ring; from tissue; host or cells: rat aorta ring
T1 sequence (Q62969 1-501): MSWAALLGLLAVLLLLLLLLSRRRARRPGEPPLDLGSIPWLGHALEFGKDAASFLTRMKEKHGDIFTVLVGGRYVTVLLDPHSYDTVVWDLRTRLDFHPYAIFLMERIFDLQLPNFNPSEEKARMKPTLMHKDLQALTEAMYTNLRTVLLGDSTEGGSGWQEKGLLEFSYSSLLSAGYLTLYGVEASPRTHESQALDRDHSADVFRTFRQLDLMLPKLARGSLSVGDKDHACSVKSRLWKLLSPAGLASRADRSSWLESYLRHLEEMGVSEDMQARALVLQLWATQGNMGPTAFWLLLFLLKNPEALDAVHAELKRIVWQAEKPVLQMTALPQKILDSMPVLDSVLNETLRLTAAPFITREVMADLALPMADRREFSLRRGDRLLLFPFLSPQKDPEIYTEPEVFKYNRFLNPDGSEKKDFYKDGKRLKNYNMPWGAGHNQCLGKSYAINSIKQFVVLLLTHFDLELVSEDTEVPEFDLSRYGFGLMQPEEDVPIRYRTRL
The experiment in a line: Inhibitory effect on prostacyclin synthetase. The following applies: in vitro; rat aorta ring; 1.7 μM 14C-arachidonic acid, 37° C., 20 minutes; read-out: Inhibitory effect on prostacyclin synthetase (50% inhibitory molar concentration). It is filed as biochemical. How it is done: (§1) Effects of test compounds on thromboxane synthetase, cyclo-oxygenase and prostacyclin synthetase were examined in vitro by the following methods:
According to the method described in Journal of Pharmacology and Experimental Therapeutics, vol. 215, page 240 (1980), prostacyclin was formed by incubating the rat arota ring with 1.7 μM ^14 C-arachidonic acid at 37° C. for 20 minutes. Since prostacyclin is extremely short-lived, 6-keto-prostaglandin F1α, which is a stable degradation product of prostacyclin, was separated and assayed using the same method as (a).
The inhibitory activities of test compounds on prostacyclin synthetase were assessed by comparing the contents of 6-keto-prostaglandin F1α formed in the presence and the absence of test compounds.

Series [1] in a line: Acute toxicity (oral LD50). As to conditions: rat, in vivo, p.o., six male Wistar rats. How it is done: According to the method described in Journal of Pharmacological and Experimental Therapeutics, vol. 96, page 99 (1949), the test compounds were orally administered to a group consisting of six male Wistar rats. The 50% lethal doses (LD50, mg/kg) were determined.
A further series addresses T2, thromboxane synthetase (Homo sapiens, UniProt P24557).
T2 construct: incubating human platelet microsomes; from tissue; host or cells: human platelet microsomes
T2 sequence (P24557 1-533): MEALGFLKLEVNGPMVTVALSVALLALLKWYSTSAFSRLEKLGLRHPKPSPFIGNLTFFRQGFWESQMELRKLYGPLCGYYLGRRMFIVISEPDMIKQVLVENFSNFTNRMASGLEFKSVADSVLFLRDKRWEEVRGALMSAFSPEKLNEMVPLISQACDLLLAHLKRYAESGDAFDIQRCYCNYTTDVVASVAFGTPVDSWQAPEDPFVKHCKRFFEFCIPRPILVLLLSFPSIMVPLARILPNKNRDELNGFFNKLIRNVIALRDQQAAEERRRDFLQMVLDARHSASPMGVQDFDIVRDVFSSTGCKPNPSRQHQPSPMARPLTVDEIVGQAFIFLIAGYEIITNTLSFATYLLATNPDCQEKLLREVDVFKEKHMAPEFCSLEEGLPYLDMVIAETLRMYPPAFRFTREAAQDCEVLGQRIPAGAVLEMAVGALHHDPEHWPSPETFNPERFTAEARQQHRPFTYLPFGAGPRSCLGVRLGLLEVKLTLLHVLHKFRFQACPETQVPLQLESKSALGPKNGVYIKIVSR
The experiment in a line: Inhibitory effect on thromboxane synthetase. It is filed as biochemical. As to conditions: in vitro; human platelet microsomes; 4.3 μM 14C-arachidonic acid, 25° C., 5 minutes; read-out: Inhibitory effect on thromboxane synthetase (50% inhibitory molar concentration). How it is done:
as §1
According to the method described in Journal of Biological Chemistry, vol. 252, page 5871 (1977), thromboxane was produced by incubating human platelet microsomes with 4.3 μM ^14 C-arachidonic acid at 25° C. for 5 minutes. Since thromboxane A2 is extremely short-lived, thromboxane B2, which is a stable degradation product of thromboxane A2, was assayed. The incubation mixture was extracted with ethyl acetate, and thromboxane B2 was separated on a thin-layer chromatogram. The zone of thromboxane B2 on a silica gel plate was detected with a radiochromatoscanner and scraped off. The radioactivities were determined with a liquid scintilation counter.
The inhibitory activities of test compounds on thromboxane synthetase were assessed by comparing the contents of thromboxane formed in the presence and the absence of test compounds.

Another series concerns the target T3, cyclo-oxygenase (Bos taurus, UniProt O62664).
T3 construct: bovine seminal vesicle microsomes; from tissue; host or cells: bovine seminal vesicle microsomes
T3 sequence (O62664 25-600): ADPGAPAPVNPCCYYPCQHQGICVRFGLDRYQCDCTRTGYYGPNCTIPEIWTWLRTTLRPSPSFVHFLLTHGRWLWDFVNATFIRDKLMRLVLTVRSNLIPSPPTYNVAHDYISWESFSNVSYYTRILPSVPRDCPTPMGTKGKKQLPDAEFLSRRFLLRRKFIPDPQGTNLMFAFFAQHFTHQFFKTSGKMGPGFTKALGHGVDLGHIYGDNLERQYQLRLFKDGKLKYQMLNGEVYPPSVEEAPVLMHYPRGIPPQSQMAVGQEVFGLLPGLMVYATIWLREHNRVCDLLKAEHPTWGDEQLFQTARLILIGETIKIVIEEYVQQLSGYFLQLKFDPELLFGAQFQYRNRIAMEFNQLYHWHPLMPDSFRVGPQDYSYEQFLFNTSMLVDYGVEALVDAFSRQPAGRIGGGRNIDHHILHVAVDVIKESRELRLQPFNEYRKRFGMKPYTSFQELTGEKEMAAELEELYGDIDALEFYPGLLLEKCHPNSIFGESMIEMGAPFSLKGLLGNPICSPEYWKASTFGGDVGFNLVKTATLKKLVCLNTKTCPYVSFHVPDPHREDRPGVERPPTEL
The experiment in a line: Inhibitory effect on cyclo-oxygenase. It is filed as biochemical. The following applies: in vitro; bovine seminal vesicle microsomes; 104.3 μM 14C-arachidonic acid, 25° C., 10 minutes; read-out: Inhibitory effect on cyclo-oxygenase (50% inhibitory molar concentration). How it is done:
as §1
According to the method described in Proceedings of National Academy of Sciences, U.S.A., vol. 71, page 3645 (1974), bovine seminal vesicle microsomes were incubated with 104.3 μM ^14 C-arachidonic acid at 25° C. for 10 minutes. Prostaglandin E2 thus formed was separated and assayed using the same method as (a).
The inhibitory activities of test compounds on cyclo-oxygenase were assessed by comparing the contents of prostaglandin E2 formed in the presence and absence of test compounds.

For another series, the system named is platelet aggregation. The series is described as follows: Inhibitory activities on platelet aggregation (ex vivo, arachidonic acid, after oral administration to rabbits). It is filed as in vivo, rabbit. The following applies: Oryctolagus cuniculus, 1 h, blood one hour after administration, read-out: Inhibitory activities on platelet aggregation, Rate of inhibition. The procedure:
According to the method described in Journal of Physiology, vol. 162, page 67 (1962), the inhibitory activities of compounds of this invention on platelet aggregation were measured from the changes in transmittance with an aggregometer (Rikadenki Electronics Co., Japan).
Before and one hour after the oral administration of test compounds to rabbits, blood was collected. The blood was mixed with sodium citrate in the ratio of 9:1 by volume. Platelet rich plasma (PRP) was prepared by centrifuging the citrated blood at 1000 rpm for 10 minutes, and platelet poor plasma (PPP), by centrifuging the remaining citrated blood at 3000 rpm for 10 minutes.
The transmittance of aggregometer was adjusted to 0 and 100% with PRP and PPP, respectively. To 0.3 ml of a PRP sample was added 0.003 ml of arachidonic acid solution. The changes in transmittance of the mixture were measured using the aggregometer with stirring at 1200 rpm.
Inhibitory activities on platelet aggregation were assessed as % inhibition by comparing the rate of aggregation of treated PRP with that of blood collected before the oral administration of test compounds.

One may read the LD50 as the dose at which mortality reaches 50%. Low readings indicate a more toxic substance, high ones a less toxic substance. By inhibition is commonly meant the drop in the measured response relative to a control, in per cent. In the case of `Cc1ccc(-n2ccnc2)cc1C(O)c1c(C)cc(C(=O)O)cc1C` (stereo not drawn) [α-(2,6-dimethyl-4-carboxyphenyl)-2-methyl-5-(1-imidazolyl)benzenemethanol], the IC50 on prostacyclin synthetase was above 100 µM; at thromboxane synthetase it was 0.022 µM; on cyclo-oxygenase, above 100 µM. The 50% lethal dose (LD50) in series [1] was above 1000 mg/kg. The inhibition at 10 mg/kg with platelet aggregation is 100%.

As to `Cc1cc(C)c(C(O)c2cc(-n3ccnc3)ccc2C)c(C)c1` (stereo not drawn) [α-(2,4,6-trimethylphenyl)-2-methyl-5-(1-imidazolyl)benzenemethanol], the LD50 in series [1] was above 1000 mg/kg. Also, at thromboxane synthetase, the IC50 was 0.82 µM. Further, in the series with platelet aggregation, the inhibition at 10 mg/kg turned out to be 100%.

As to `Cc1cc(C(=O)O)cc(C)c1C(O)c1cc(-n2ccnc2)ccc1Cl` (stereo not drawn) [α-(2,6-dimethyl-4-carboxyphenyl)-2-chloro-5-(1-imidazolyl)benzenemethanol], the values for the IC50 on prostacyclin synthetase, at thromboxane synthetase and on cyclo-oxygenase were above 100 µM, 0.052 µM and above 100 µM, respectively. In series [1], this compound returned an LD50 above 1000 mg/kg. Also, the inhibition at 10 mg/kg with platelet aggregation came to 100%.

As to `COC(=O)c1cc(C)c(C(O)c2cc(-n3ccnc3)ccc2C)c(C)c1` (stereo not drawn) [α-(2,6-dimethyl-4-methoxycarbonylphenyl)-2-methyl-5-(1-imidazolyl)benzenemethanol], the IC50 at prostacyclin synthetase was above 100 µM; at thromboxane synthetase, 0.7 µM; at cyclo-oxygenase it was above 100 µM. In addition, in series [1], the LD50 is above 1000 mg/kg. Moreover, in the series on platelet aggregation, the inhibition at 10 mg/kg worked out at 100%.

With `Cc1cc(C)c(C(O)c2ccc(-n3ccnc3)c(Cl)c2)c(C)c1` (stereo not drawn) [α-(2,4,6-trimethylphenyl)-3-chloro-4-(1-imidazolyl)benzenemethanol], the IC50 at prostacyclin synthetase was above 100 µM; on thromboxane synthetase it was 0.18 µM; on cyclo-oxygenase, above 100 µM. The same compound displayed a median lethal dose (LD50) in series [1] above 1000 mg/kg. For the same compound, the inhibition at 10 mg/kg with platelet aggregation was 80%.

On to `Cc1cc(C)c(C(O)c2cccc(-n3ccnc3)c2)c(C)c1` (stereo not drawn) [α-(2,4,6-trimethylphenyl)-3-(1-imidazolyl)benzenemethanol], for which the IC50 is above 100 µM at prostacyclin synthetase, 0.34 µM at thromboxane synthetase and above 1000 µM at cyclo-oxygenase. The LD50 in series [1] is above 1000 mg/kg. Further, the inhibition at 10 mg/kg in the series on platelet aggregation came out at 100%.

Take `Cc1ccc(-n2ccnc2)cc1C(O)c1c(C)cc(C(=O)OC(C)C)cc1C` (stereo not drawn) [α-(2,6-dimethyl-4-isopropoxycarbonylphenyl)-2-methyl-5-(1-imidazolyl)benzenemethanol]: the IC50 at prostacyclin synthetase and on cyclo-oxygenase was above 100 µM throughout. Besides, the 50% lethal dose (LD50) in series [1] was above 1000 mg/kg. Further, the inhibition at 10 mg/kg with platelet aggregation was 76%.

Take `Cc1cc(C)c(C(O)c2cc(-n3ccnc3)ccc2Cl)c(C)c1` (stereo not drawn) [α-(2,4,6-trimethylphenyl)-2-chloro-5-(1-imidazolyl) benzenemethanol]: the IC50 was above 1000 µM at prostacyclin synthetase, 2.3 µM at thromboxane synthetase and above 1000 µM on cyclo-oxygenase. The compound further displayed a median lethal dose (LD50) in series [1] above 1000 mg/kg. In the series on platelet aggregation, the inhibition at 10 mg/kg was 71%.

`Cc1cc(C)c(C(O)c2cccc(-n3ccnc3)c2C)c(C)c1` (stereo not drawn) [α-(2,4,6-Trimethylphenyl)-2-methyl-3-(1-imidazolyl)benzenemethanol] registered an LD50 in series [1] above 1000 mg/kg. In addition, the inhibition at 10 mg/kg in the series on platelet aggregation was 68%.

Regarding `CCOC(=O)c1cc(C)c(C(O)c2cc(-n3ccnc3)ccc2C)c(C)c1` (stereo not drawn) [α-(2,6-dimethyl-4-ethoxycarbonylphenyl)-2-methyl-5-(1-imidazolyl)benzenemethanol], the IC50 on prostacyclin synthetase and on cyclo-oxygenase was above 100 µM throughout. The same compound yielded an LD50 in series [1] above 1000 mg/kg. The inhibition at 10 mg/kg with platelet aggregation turned out to be 100%.

As for `Cc1cc(C)c(C(O)c2ccc(C)c(-n3ccnc3)c2)c(C)c1` (stereo not drawn) [α-(2,4,6-Trimethylphenyl)-4-methyl-3-(1-imidazolyl)benzenemethanol], the LD50 in series [1] is above 1000 mg/kg. The inhibition at 10 mg/kg with platelet aggregation amounted to 88%.
